The values that follow come from patent publication US8921372B2, “Inhibitors of hepatitis C virus” (Theravance Biopharma R&D IP, LLC, priority 2010, dated 2014).

The subject of assay [1] is HCV genotype 1b replicon cell line (APC144; Huh7 cell background). The assay is described as follows: HCV Genotype 1b Replicon Assay (Renilla luciferase readout). To be noted: Hepatitis C virus, Huh-7; read-out: Genotype 1b (pEC50 class, HCV genotype 1b replicon assay) (converted). The class given is cell-based. Put shortly: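 Huh7-derived APC144 subgenomic replicon cells carrying Renilla luciferase–NS3-NS5B, seeded 10,000/well without G418, then treated with compound dose-responses for 48 h at 37 °C (0.5% DMSO final). Luciferase signal fitted by 4-parameter model to EC50, reported as pEC50.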
Background: In antiviral work, replicon cells carry a viral genome segment that copies itself.

Assay [2] has as its system HCV genotype 1a replicon cell line (APC89; Huh7.5 cell background). Briefly: HCV Genotype 1a Replicon Assay (NS3-specific protease activity readout). It is filed as cell-based. To be noted: Hepatitis C virus. Put shortly:
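Genotype 1a subgenomic replicon cells (APC89, Huh7.5) were treated with compound dose-responses in G418-free medium, 0.5% DMSO final, for 48 or 72 hours at 37° C. Lysate NS3/4a protease activity measured with 15 μM FRET substrate, 20 min at 37° C (ex 340/em 509 nm); EC50 by 4-parameter fit.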

The mark [3] stands for this setting: 72 hour incubation, read-out: Genotype 1a (pEC50 class, HCV genotype 1a replicon assay) (converted).

Where two headings read alike, the source gives them in different places. Bounds are passed on as bounds.

Regarding `COC(=O)N[C@H](C(=O)N1CCC[C@H]1c1nc(-c2ccc(-c3ccc(NC(=O)c4ccc(N5CCN(C(=O)C(C)(C)C)CC5)cc4)cc3)cc2)c[nH]1)C(C)C` [Example 2, ((S)-1-{(S)-2-[4-(4′-{4-[4-(2,2-Dimethyl-propionyl)-piperazin-1-yl]-benzoylamino}-biphenyl-4-yl)-1H-imidazol-2-yl]-pyrrolidine-1-carbonyl}-2-methyl-propyl)-carbamic acid methyl ester], the EC50 in assay [1] was < 100 pM; in assay [2] (compounds incubated for 48 hours, read-out: Genotype 1a (pEC50 class, HCV genotype 1a replicon assay), * results (converted)), 1000 to 10000 pM.

For `COC(=O)N[C@H](C(=O)N1CCC[C@H]1c1nc(-c2ccc(-c3ccc(NC(=O)c4ccc(N5CCN(C(=O)[C@H]6CC6(C)C)C[C@H]5C)nc4)cc3Cl)cc2)c[nH]1)C(C)C` [Example 49, [(S)-1-((S)-2-{4-[2′-Chloro-4′-({6-[(R)-4-((S)-2,2-dimethyl-cyclopropanecarbonyl)-2-methyl-piperazin-1-yl]-pyridine-3-carbonyl}-amino)-biphenyl-4-yl]-1H-imidazol-2-yl}-pyrrolidine-1-carbonyl)-2-methyl-propyl]-carbamic acid methyl ester], the EC50 in assay [1] and in assay [2] (setting [3]) was < 100 pM throughout.

Turning to `CNC(=O)N1CCN(c2ccc(C(=O)Nc3ccc(-c4ccc(-c5c[nH]c([C@@H]6CCCN6C(=O)[C@@H](NC(=O)OC)C(C)C)n5)cc4)c(OC(F)(F)F)c3)cn2)[C@H](C)C1` [Example 26], the EC50 in assay [1] and in assay [2] (setting [3]) was < 100 pM each time.

Consider `COC(=O)N[C@H](C(=O)N1CCC[C@H]1c1nc(-c2ccc(-c3cc(F)c(NC(=O)c4ccc(N5CCN(C(=O)[C@H]6CC6(C)C)C[C@H]5C)nc4)cc3C(F)(F)F)cc2)c[nH]1)C(C)C` [Example 51, [(S)-1-((S)-2-{4-[4′-({6-[(R)-4-((S)-2,2-Dimethyl-cyclopropanecarbonyl)-2-methyl-piperazin-1-yl]-pyridine-3-carbonyl}-amino)-5′-fluoro-2′-trifluoromethyl-biphenyl-4-yl]-1H-imidazol-2-yl}-pyrrolidine-1-carbonyl)-2-methyl-propyl]carbamic acid methyl ester], for which the EC50 in assay [1] and in assay [2] (setting [3]) was < 100 pM in each case.

`COC(=O)N[C@H](C(=O)N1CCC[C@H]1c1nc(-c2ccc(-c3ccc(NC(=O)c4ccc(N5CCN(C(=O)C6CC6)CC5)cc4)cc3)cc2)c[nH]1)C(C)C` [Example 1, {(S)-1-[(S)-2-(4-{4′-[4-(4-cyclopropanecarbonyl-piperazin-1-yl)-benzoylamino]-biphenyl-4-yl}-1H-imidazol-2-yl)-pyrrolidine-1-carbonyl]-2-methyl-propyl}-carbamic acid methyl ester]: the values for the EC50 in assay [1] and in assay [2] (setting [3]) were < 100 pM and 1000 to 10000 pM, respectively.

For `COC(=O)N[C@H](C(=O)N1CCC[C@H]1c1nc(-c2ccc(-c3ccc(C(=O)Nc4ccc(N5CCN(C(=O)[C@]6(C)CCCN6C(=O)C(C)(C)O)C[C@H]5C)nc4)cc3OC(F)(F)F)cc2)c[nH]1)C(C)C` [Example 69], the EC50 in assay [1] is < 100 pM; in assay [2] (setting [3]) it was 100 to 1000 pM.

Take `COC(=O)N[C@H](C(=O)N1CCC[C@H]1c1nc(-c2ccc(-c3cc(F)c(NC(=O)c4ccc(N5CCN(C(=O)c6c[nH]cn6)C[C@H]5C)nc4)cc3OC(F)(F)F)cc2)c[nH]1)C(C)C` [Example 27-33]: the EC50 in assay [1] and in assay [2] (setting [3]) was < 100 pM throughout.

As for `COC(=O)N[C@H](C(=O)N1CCC[C@H]1c1nc(-c2ccc(-c3ccc(C(=O)Nc4ccc(N5CCN(C(=O)[C@]6(C)CCCN6C(=O)[C@@H](NC(=O)OC)C(C)C)C[C@H]5C)nc4)cc3OC(F)(F)F)cc2)c[nH]1)C(C)C` [Example 56], the EC50 is < 100 pM in assay [1] and 100 to 1000 pM in assay [2] (setting [3]).

As for `COC(=O)N[C@H](C(=O)N1CCC[C@H]1c1nc(-c2ccc(-c3cc(F)c(NC(=O)c4ccc(N5CCN(C(=O)c6cc[nH]n6)C[C@H]5C)nc4)cc3OC(F)(F)F)cc2)c[nH]1)C(C)C` [Example 27-34], the EC50 in assay [1] and in assay [2] (setting [3]) was < 100 pM throughout.

As for `COCCNC(=O)N1CCC[C@@]1(C)C(=O)N1CCN(c2ccc(C(=O)Nc3cc(OC(F)(F)F)c(-c4ccc(-c5c[nH]c([C@@H]6CCCN6C(=O)[C@@H](NC(=O)OC)C(C)C)n5)cc4)cc3F)cn2)[C@H](C)C1` [Example 27-45], the EC50 in assay [1] and in assay [2] (setting [3]) was < 100 pM throughout.

`COC(=O)N[C@H](C(=O)N1CCC[C@H]1c1nc(-c2ccc(-c3cc(F)c(NC(=O)c4ccc(N5CCN(C(=O)CNC(C)=O)C[C@H]5C)nc4)cc3OC(F)(F)F)cc2)c[nH]1)C(C)C` [Example 27-37]: the EC50 in assay [1] and in assay [2] (setting [3]) was < 100 pM each time.

Consider `COC(=O)N[C@H](C(=O)N1CCC[C@H]1c1nc(-c2ccc(-c3ccc(NC(=O)c4ccc(N5CCN(C(=O)c6c[nH]cn6)C[C@H]5C)nc4)cc3C)cc2)c[nH]1)C(C)C` [Example 19], for which the EC50 in assay [1] is < 100 pM; in assay [2] (setting [3]) it was 100 to 1000 pM.

With `COC(=O)N[C@H](C(=O)N1CCC[C@H]1c1nc(-c2ccc(-c3ccc(NC(=O)c4ccc(N5CCN(C(=O)C6CC6)C[C@H]5C)nc4)cc3C(F)(F)F)cc2)c[nH]1)C(C)C` [Example 35], the EC50 in assay [1] is < 100 pM; in assay [2] (setting [3]), 100 to 1000 pM.

Turning to `COC(=O)N[C@H](C(=O)N1CCC[C@H]1c1nc(-c2ccc(-c3cc(F)c(NC(=O)c4ccc(N5C[C@H](C)N(C(=O)c6c[nH]cn6)C[C@H]5C)nc4)cc3OC(F)(F)F)cc2)c[nH]1)C(C)C` [Example 59], the EC50 in assay [1] and in assay [2] (setting [3]) was < 100 pM throughout.

With `COC(=O)N[C@H](C(=O)N1CCC[C@H]1c1nc(-c2ccc(-c3ccc(NC(=O)c4ccc(N5C[C@H](C)N(C(=O)C6CC6)C[C@H]5C)nc4)cc3OC(F)(F)F)cc2)c[nH]1)C(C)C` [Example 30], the EC50 in assay [1] and in assay [2] (setting [3]) was < 100 pM in each case.

`COC(=O)N[C@H](C(=O)N1CCC[C@H]1c1nc(-c2ccc(-c3ccc(NC(=O)c4ccc(N5CCN(C(=O)c6c[nH]cn6)C[C@H]5C)nc4)cc3C(F)(F)F)cc2)c[nH]1)C(C)C` [Example 37]: the EC50 in assay [1] was < 100 pM; in assay [2] (setting [3]) it was 100 to 1000 pM.

For `COC(=O)N[C@H](C(=O)N1CCC[C@H]1c1nc(-c2ccc(-c3cc(F)c(NC(=O)c4ccc(N5CCN(C(=O)[C@]6(C)CCCN6C(=O)CO)C[C@H]5C)nc4)cc3OC(F)(F)F)cc2)c[nH]1)C(C)C` [Example 27-48], the EC50 in assay [1] and in assay [2] (setting [3]) was < 100 pM throughout.

For `COC(=O)N[C@H](C(=O)N1CCC[C@H]1c1nc(-c2ccc(-c3ccc(NC(=O)c4ccc(N5CCN(C(=O)c6c[nH]cn6)C[C@H]5C)nc4)cc3OC(F)(F)F)cc2)c[nH]1)C(C)C` [Example 27], the EC50 in assay [1] and in assay [2] (setting [3]) was < 100 pM in each case.

In the case of `CNC(=O)N1CCN(c2ccc(C(=O)Nc3cc(OC(F)(F)F)c(-c4ccc(-c5c[nH]c([C@@H]6CCCN6C(=O)[C@@H](NC(=O)OC)C(C)C)n5)cc4)cc3Cl)cn2)[C@H](C)C1` [Example 27-68], the EC50 in assay [1] and in assay [2] (setting [3]) was < 100 pM throughout.

Regarding `COC(=O)N[C@H](C(=O)N1CCC[C@H]1c1nc(-c2ccc(-c3cc(F)c(NC(=O)c4ccc(N5CCN(C(=O)[C@]6(C)CCCN6C(=O)OC)C[C@H]5C)nc4)cc3OC(F)(F)F)cc2)c[nH]1)C(C)C` [Example 27-42], the EC50 in assay [1] and in assay [2] (setting [3]) was < 100 pM throughout.

Take `COC(=O)N[C@H](C(=O)N1CCC[C@H]1c1nc(-c2ccc(-c3ccc(NC(=O)c4ccc(N5CCN(C(=O)c6c[nH]cn6)C[C@H]5C)nc4)cc3F)cc2)c[nH]1)C(C)C` [Example 48]: the EC50 in assay [1] was < 100 pM; in assay [2] (setting [3]) it was 100 to 1000 pM.
